From patent US20220313780A1, “METHODS AND COMPOSITIONS FOR TREATING INFLAMMATORY CONDITIONS” (THE SCRIPPS RESEARCH INSTITUTE, priority 2019, published 2022)
pEC50: −log10 of the molar value.

Assays:
[1] = tested on: endothelial cells (EA.hy926); assay: Transendothelial Electric Resistance (TER) assay of thrombin-induced endothelial barrier disruption; type: cell-based
From the text: The bottom curve in each panel of the figure is labeled as IIa for thrombin alone and represents the observed effects for thrombin (IIa) in the absence of peptide. In each panel, IIa was always present for each peptide added. The number in each panel indicates the concentration of each peptide for the respective curves. The peptide concentration of 0 is represented by the bottom curve labeled “IIa”. (A) the dose response inhibition over time of TER, expressed by Normalized Cell Index (NCI) by the PAR1 derived peptide P1(47-66) or TR47 using concentrations between 5 and 50 nM. (B) the dose response inhibition over time of NCI by the PAR3-derived peptide P3(42-65) or P3R using a 5 to 50 nM concentration range. (C) The NCI dose response inhibition over time by the short sequence PAR1-derived peptide P1(47-55) using a range of concentrations between 50 nM and 100 μM peptide. (D) The NCI dose response inhibition over time by the short sequence PAR3-derived peptide P3(42-54) using a range of concentrations between 1 μM and 200 μM peptide. (E) The NCI dose response inhibition over time by the hybrid peptide G10 in which the P1(47-55) peptide described in panel C was linked to a PAR3 peptide P3(51-65) by using 10 Gly residues. In this case the range of concentrations to study the dose response inhibition was between 3 and 50 nM peptide. An estimate for the percentage of activity for each peptide dilution in presence of thrombin can be quantified by obtaining the Area under the Curve (AUC) for each peptide dilution in comparison to the value for the AUC for thrombin alone in the absence of any peptide. These values were used to calculate the potency of each PAR peptide.
Transendothelial Electric Resistance (TER)-based assays were used to monitor the disruption of endothelial barrier integrity caused by thrombin. The anti-inflammatory, vasculoprotective actions of different PAR peptides for protecting against thrombin-induced vascular leakage on cultured endothelial cells (EA.hy926) were followed in real time using an iCELLigence machine (ACEA Biosciences Inc, San Diego, Calif.). EA.hy926 cells at a density of 10,000/well were pipetted into the wells of gold-plated microelectrode sensor (L8, Acea Biosciences). Subsequently, the increase of electrical resistance was monitored as cells grew and spread out on the microelectrodes to obtain confluence (reaching a plateau) over the TER plates connected to the recording instrument that detected in real time the changes in TER for each well. The effects of different PAR-derived peptides at the indicated concentrations were tested for dose-response inhibition of thrombin's effects when each of the peptide dilutions was added 30 min prior to the addition of thrombin (0.25 nM final in all wells). The percentage of inhibition was proportional to the increase in TER signal over time. Cell index values, reflecting TER signals, were normalized prior to addition of thrombin following manufacturer's directions.

caspase 1 = assay: Caspase 1 activity assay in PMA-differentiated THP1 cells treated with LPS and ATP; type: cell-based, human; details: peptide at 2 nM-20 nM (tested 0-500 nM)
Description: THP1-null (THP1) cells were plated at a final concentration of 1×10^6/mL in 96 well plates and incubated with PMA (0.5 μM) for 3 hours 37° C. in supplemented RPMI. Media was subsequently changed every 24 hours for 3 days. Various subsets of wells were selected and cells were treated for 60 minutes at 37° C. in serum-free RPMI with: (A) APC (4 μg/mL), TR47 (50 μM-2 nM), scrTR47 (50 μM), SFLLRN (50 μM), TFLLRN (50 μM); (B) P3R (50 μM-500 nM), P3K (50 μM); (C) APC (4 or 1 μg/mL), TR47 (8 nM), P3R (500 nM) or TR47+P3R (8 nM and 500 nM, respectively); (D) TR47 (0-128 nM) (●)±P3R (500 nM) (□); (E) P3R (0-500 nM) (●)±TR47 (1 nM) (□). Following DPBS wash, cells were incubated with LPS (1 μg/mL) for 3 hours at 37° C. in serum-free RPMI. After a DPBS wash, cells were incubated with ATP (5 mM) in the presence or absence of 10 μM YVAD (caspase 1 inhibitor) or 2.5 μM ZVAD (pan-caspase inhibitor) for 45 minutes at 37° C., prior to performing the caspase 1 activity assay following manufacturer's directions measuring luminescence (relative luminescent units, RLU). (D & E) Experimental caspase 1 activity was normalized to YVAD (caspase 1 inhibitor) luminescence units. (A-E) Data points represent mean±S.D. of at least 3 independent experiments. *P<0.05 (vs. LPS+ATP); #P<0.05 (vs. LPS+ATP & APC, TR47 or P3R); **P<0.005 (vs. LPS+ATP & TR47+500 nM P3R); n.s. not significant.
THP1 cells were plated at a final concentration of 1×10^6/mL in 96 well plates and incubated with PMA (0.5 μM) for 3 hours 37° C. in supplemented RPMI. Media was subsequently changed every 24 hours for 3 days. Selected wells were treated with APC (4 μg/mL), (A) 50 μM or (B) 2 μM of P3R, P3Rm, P3R 51-65, P3R 51-59, P3R 54-59 or P3R 59-65 for 1 hour, washed with DPBS, and incubated with LPS (1 μg/mL) for 3 hours at 37° C. in serum-free RPMI. Cells were washed with DPBS and incubated with ATP (5 mM) in the presence or absence of 10 μM YVAD (caspase 1 inhibitor; C1i) or 2.5 μM ZVAD (pan-caspase inhibitor; pCi) for 45 minutes at 37° C., prior to performing the caspase 1 activity assay following manufacturer's directions measuring luminescence (relative luminescent units, RLU). (C) Diagram showing the PAR3 sequence, peptide sequences and relative (anti-inflammatory) activity. These include sequences of P3R (SEQ ID NO:4), P3Rm (SEQ ID NO:8), P3R 51-65 (SEQ ID NO:9), P3R 51-59 (SEQ ID NO:10), P3R 54-59 (SEQ ID NO:54) and P3R 59-65 (SEQ ID NO:55).
THP1 cells were plated at a final concentration of 1×10^6/mL in 96 well plates and incubated with PMA (0.5 μM) for 3 hours 37° C. in supplemented RPMI. Media was subsequently changed every 24 hours for 3 days. Selected wells were treated with APC (4 μg/mL), TR47, in (A) 9-mer (TR47 9-mer; NPNDKYEPF (SEQ ID NO:36)) or Ac-TR47 (Acylated TR47) at either 50 μM or 10 nM or (B) 50 μM of 16-mer-TR47, 8-mer-TR47, 6-mer-TR47, TR47 N−1, TR47 N−2, TR47 N−5, TR47AQ, TR47AD, TR47AA or TR48-54 for 1 hour, washed with DPBS, and incubated with LPS (1 μg/mL) for 3 hours at 37° C. in serum-free RPMI. Cells were washed with DPBS and incubated with ATP (5 mM) in the presence or absence of 10 μM YVAD (caspase 1 inhibitor; C1i) or 2.5 μM ZVAD (pan-caspase inhibitor; pCi) for 45 minutes at 37° C., prior to performing the caspase 1 activity assay following manufacturer's directions measuring luminescence (relative luminescent units, RLU). #P<0.001 (vs. LPS+ATP), **P<0.005 (vs. LPS+ATP), * (P<0.05 vs. LPS+ATP). (C) Diagram showing the PAR1 sequence, peptide sequences and relative (anti-inflammatory) activity. These include sequences of TR47 (SEQ ID NO:7), Ac-TR47 (SEQ ID NO:56), 16-mer-TR47 (SEQ ID NO:43), 9-mer-TR47 (SEQ ID NO:36), 8-mer-TR47 (SEQ ID NO:35), 6-mer-TR47 (SEQ ID NO:33), TR47 N−1 (SEQ ID NO:47), TR47 N−2 (SEQ ID NO:51), TR47 N−5 (SEQ ID NO:48), TR47AQ (SEQ ID NO:49), TR47AD (SEQ ID NO:52), TR47AA (SEQ ID NO:50) and TR48-54 (SEQ ID NO:53). […]

- pEC50 ([1]; stabilization of endothelial cell barrier integrity, thrombin 0.25 nM, peptide added 30 min prior, read-out: half-maximum observed activity): ~8.22
Sequence: NPNDKYEPFGGGGGGGGGGFPFSALEGWTGATIT [G10, PAR1/PAR3 fusion peptide, P1(47-55) linked to P3(51-65) by 10 Glycine residues]
- effect on thrombin-induced disruption of endothelial barrier ([1]; peptide at 3 to 50 nM): very significant effects
- effectiveness relative to PAR3 peptide P3(42-54) alone ([1]; protection of endothelial barrier integrity): > 100 fold
- potency relative to the long PAR1 peptide TR47 ([1]; protection of endothelial barrier integrity, 6 nM G10 compared to 50 nM PAR1 peptide): ~8 fold
- caspase-1 activity (caspase 1): a significant reduction in caspase-1 activity
